{"source": "patent US20070213272A1", "about": "“Transmucosal Administration Agent Containing Pth” (priority 2004, published 2007)", "key": {"[1]": {"experiment": "PTH(1-34) level in plasma after caudal vein and subcutaneous administration (pharmacokinetics)", "format": "in vivo, rat", "experimental": "Changes of PTH(1-34) level in plasma by caudal vein administration (iv) and subcutaneous administration (sc) were examined. hPTH(1-34) was diluted with phosphate buffer solution (PBS)/0.05% Tween 80 and adjusted to 10 nmol/ml. Female SD-IGS rats at 8 weeks of age (Charles River Japan, Inc.) were used for the experiment. A single dose administration was carried out by caudal vein administration and subcutaneous administration, and blood was collected from tail vein using a capillary tube for blood collection in a time-dependent manner (at pre-administration, 2.5, 5, 7.5, 10, 15, 30, 60, 90, 120 min.). After EDTA plasma was isolated, the collected blood samples were stored at -80° C. until the hPTH(1-34) level was measured. The PTH(1-34) level was measured by ELISA method using PTH(1-34) (human)-EIA kit (Peninsula Laboratories)."}, "[2]": {"tested_on": "patients with primary osteoporosis", "experiment": "Safety evaluation: adverse events and side effects in transnasal clinical study", "format": "in vivo, human", "experimental": "[…] Here, hPTH1-34 transnasal administration formulation was produced by the method in Example 2 of International Patent Publication No. WO02/02136. Using a nebulizer VP-7 (Valois) which uniformly sprays 100 μL of the drug solution by pumping once, one pumping for each nasal cavity, the total of 200 μL of the drug solution was sprayed daily. […] A single dose containing each amount of hPTH(1-34) was administered once a day on consecutive days of 12 weeks, and effectiveness and safety of each amount was confirmed. Safety evaluation: the occurrence number of adverse events was counted and evaluated. In counting adverse and other events, coding to preferred terms (PT) and classification of adverse event names into system organ classes (SOC) were conducted based on “MedDRA Version6.1”."}, "patients": {"tested_on": "patients", "conditions": "subcutaneous administration, Neer et al. 2001; cited from earlier work"}, "[3]": {"conditions": "rat, iv (caudal vein) single dose, 10 nmol/ml solution, female SD-IGS rats, plasma"}, "[4]": {"conditions": "rat, sc single dose, 10 nmol/ml solution, female SD-IGS rats, plasma"}, "[5]": {"conditions": "transnasal, all dose groups, 97 subjects for safety evaluation"}}, "note": "Where “and” joins values, the source holds several entries; their conditions need not be identical. Identical values can stand only once.", "data": [{"smiles": "CC[C@H](C)[C@H](NC(=O)[C@H](CCC(=O)O)NC(=O)[C@H](CO)NC(=O)[C@@H](NC(=O)[C@@H](N)CO)C(C)C)C(=O)N[C@@H](CCC(N)=O)C(=O)N[C@@H](CC(C)C)C(=O)N[C@@H](CCSC)C(=O)N[C@@H](Cc1cnc[nH]1)C(=O)N[C@@H](CC(N)=O)C(=O)N[C@@H](CC(C)C)C(=O)NCC(=O)N[C@@H](CCCCN)C(=O)N[C@@H](Cc1cnc[nH]1)C(=O)N[C@@H](CC(C)C)C(=O)N[C@@H](CC(N)=O)C(=O)N[C@@H](CO)C(=O)N[C@@H](CCSC)C(=O)N[C@@H](CCC(=O)O)C(=O)N[C@@H](CCCN=C(N)N)C(=O)N[C@H](C(=O)N[C@@H](CCC(=O)O)C(=O)N[C@@H](Cc1c[nH]c2ccccc12)C(=O)N[C@@H](CC(C)C)C(=O)N[C@@H](CCCN=C(N)N)C(=O)N[C@@H](CCCCN)C(=O)N[C@@H](CCCCN)C(=O)N[C@@H](CC(C)C)C(=O)N[C@@H](CCC(N)=O)C(=O)N[C@@H](CC(=O)O)C(=O)N[C@H](C(=O)N[C@@H](Cc1cnc[nH]1)C(=O)N[C@@H](CC(N)=O)C(=O)N[C@@H](Cc1ccccc1)C(=O)O)C(C)C)C(C)C", "note": "[hPTH(1-34)]", "values": [{"measurement": "PK profile of iv administration compared with sc administration", "setting": "[1]; iv versus sc single dose, rats", "result": "more pulse-like PK"}, {"measurement": "AUC", "setting": "[1]; [3]", "result": 17.8, "unit": "ng·h/mL"}, {"measurement": "half-life", "setting": "[1]; [3]", "result": 6.9, "unit": "min"}, {"measurement": "AUC", "setting": "[1]; [4]", "result": 3.83, "unit": "ng·h/mL"}, {"measurement": "Cmax", "setting": "[1]; [4]", "result": 9, "unit": "ng/mL"}, {"measurement": "Tmax", "setting": "[1]; [4]", "result": 20, "unit": "min"}, {"measurement": "half-life", "setting": "[1]; [4]", "result": 10.8, "unit": "min"}, {"measurement": "number of adverse events", "setting": "[2]; transnasal, 250-μg group", "result": 46, "unit": "events"}, {"measurement": "number of side effect events", "setting": "[2]; transnasal, 250-μg group", "result": 12, "unit": "events"}, {"measurement": "subjects with adverse events", "setting": "[2]; transnasal, 250-μg group", "result": 71.0, "unit": "%"}, {"measurement": "subjects with side effects", "setting": "[2]; transnasal, 250-μg group", "result": 22.6, "unit": "%"}, {"measurement": "number of adverse events", "setting": "[2]; transnasal, 500-μg group", "result": 51, "unit": "events"}, {"measurement": "number of side effect events", "setting": "[2]; transnasal, 500-μg group", "result": 10, "unit": "events"}, {"measurement": "subjects with adverse events", "setting": "[2]; transnasal, 500-μg group", "result": 76.7, "unit": "%"}, {"measurement": "subjects with side effects", "setting": "[2]; transnasal, 500-μg group", "result": 26.7, "unit": "%"}, {"measurement": "number of adverse events", "setting": "[2]; transnasal, 1,000-μg group", "result": 48, "unit": "events"}, {"measurement": "number of side effect events", "setting": "[2]; transnasal, 1,000-μg group", "result": 13, "unit": "events"}, {"measurement": "subjects with adverse events", "setting": "[2]; transnasal, 1,000-μg group", "result": 69.0, "unit": "%"}, {"measurement": "subjects with side effects", "setting": "[2]; transnasal, 1,000-μg group", "result": 24.1, "unit": "%"}, {"measurement": "number of adverse events", "setting": "[2]; transnasal, 1,500-μg group", "result": 10, "unit": "events"}, {"measurement": "number of side effect events", "setting": "[2]; transnasal, 1,500-μg group", "result": 2, "unit": "events"}, {"measurement": "subjects with adverse events", "setting": "[2]; transnasal, 1,500-μg group", "result": 71.4, "unit": "%"}, {"measurement": "subjects with side effects", "setting": "[2]; transnasal, 1,500-μg group", "result": 28.6, "unit": "%"}, {"measurement": "frequency of leg cramps", "setting": "[2]; transnasal, all dose groups", "result": "no observation and 0%"}, {"measurement": "frequency of nausea", "setting": "[2]; transnasal, all dose groups", "result": "no observation and 0%"}, {"measurement": "number of side effect events", "setting": "[2]; transnasal, all dose groups", "result": 37, "unit": "events"}, {"measurement": "occurrence rate of clinical examination (SOC)", "setting": "[2]; transnasal, all dose groups", "result": 19.6, "unit": "%"}, {"measurement": "occurrence rate of dizziness", "setting": "[2]; transnasal, all dose groups", "result": 4.1, "unit": "%"}, {"measurement": "occurrence rate of headache", "setting": "[2]; transnasal, all dose groups", "result": 7.2, "unit": "%"}, {"measurement": "occurrence rate of heat failure (SOC)", "setting": "[2]; transnasal, all dose groups", "result": 21.6, "unit": "%"}, {"measurement": "occurrence rate of infectious disease and parasitic disease (SOC)", "setting": "[2]; transnasal, all dose groups", "result": 18.6, "unit": "%"}, {"measurement": "occurrence rate of nasopharyngitis (PT)", "setting": "[2]; transnasal, all dose groups", "result": 14.4, "unit": "%"}, {"measurement": "occurrence rate of supraventricular premature beat (PT)", "setting": "[2]; transnasal, all dose groups", "result": 12.4, "unit": "%"}, {"measurement": "occurrence rate of ventricular premature beat (PT)", "setting": "[2]; transnasal, all dose groups", "result": 5.2, "unit": "%"}, {"measurement": "side effect events with the occurrence rate of 5% or more", "setting": "[2]; transnasal, all dose groups", "result": "no event"}, {"measurement": "subjects with side effects", "setting": "[2]; transnasal, all dose groups", "result": 24.7, "unit": "%"}, {"measurement": "number of adverse events", "setting": "[2]; [5]", "result": 155, "unit": "events"}, {"measurement": "subjects with adverse events", "setting": "[2]; [5]", "result": 72.2, "unit": "%"}, {"measurement": "frequency of dizziness", "setting": "patients", "result": 9, "unit": "%"}, {"measurement": "frequency of headache", "setting": "patients", "result": 13, "unit": "%"}, {"measurement": "frequency of leg cramps", "setting": "patients", "result": 3, "unit": "%"}, {"measurement": "frequency of nausea", "setting": "patients", "result": 18, "unit": "%"}]}]}
